Data taken from ChEMBL document CHEMBL1152576, “E-Combretastatin and E-resveratrol structural modifications: antimicrobial and cancer cell growth inhibitory beta-E-nitrostyrenes” (Bioorg Med Chem, 2009).
Values after ≈ are worked out from the molar mass of the structure shown. Active and inactive are the calls of the source. No cut-off for these calls is given here.

What was measured:
P388 = test: Cytotoxicity against mouse P388 cells after 48 hrs by sulforhodamine B assay; type: functional; conditions: P388, 48 h, read-out: ED50 (the source's name)
BXPC-3 = test: Cytotoxicity against human BxPC3 cells after 48 hrs by sulforhodamine B assay; type: functional; conditions: BXPC-3, 48 h
MCF7 = test: Cytotoxicity against human MCF7 cells after 48 hrs by sulforhodamine B assay; type: functional; conditions: MCF7, 48 h
SF-295 = test: Cytotoxicity against human SF295 cells after 48 hrs by sulforhodamine B assay; type: functional; conditions: SF-295, 48 h
SF-268 = test: Cytotoxicity against human SF268 cells after 48 hrs by sulforhodamine B assay; type: functional
NCI-H460 = test: Cytotoxicity against human NCI-H460 cells after 48 hrs by sulforhodamine B assay; type: functional; conditions: NCI-H460, 48 h
KM-20L2 = test: Cytotoxicity against human KM20L2 cells after 48 hrs by sulforhodamine B assay; type: functional; conditions: KM-20L2, 48 h
DU-145 = test: Cytotoxicity against human DU145 cells after 48 hrs by sulforhodamine B assay; type: functional; conditions: DU-145, 48 h
SK-MEL-5 = test: Cytotoxicity against human SK-MEL-5 cells after 48 hrs by sulforhodamine B assay; type: functional
OVCAR-3 = test: Cytotoxicity against human OVCAR-3 cells after 48 hrs by sulforhodamine B assay; type: functional
A498 = test: Cytotoxicity against human A498 cells after 48 hrs by sulforhodamine B assay; type: functional
[1] = Inhibition of tubulin polymerization
Candida albicans [2] = test: Antimicrobial activity against Candida albicans ATCC 90028 assessed clear zone in inhibition per disk by CLSI disk diffusion susceptibility assay; type: functional
Cryptococcus neoformans [3] = test: Antimicrobial activity against Cryptococcus neoformans ATCC 90112 assessed clear zone in inhibition per disk by CLSI disk diffusion susceptibility assay; type: functional
Staphylococcus aureus [4] = test: Antimicrobial activity against Staphylococcus aureus ATCC 29213 assessed clear zone in inhibition per disk by CLSI disk diffusion susceptibility assay; type: functional
Streptococcus pneumoniae [5] = test: Antimicrobial activity against Streptococcus pneumoniae ATCC 6303 assessed clear zone in inhibition per disk by CLSI disk diffusion susceptibility assay; type: functional
Enterococcus faecalis [6] = test: Antimicrobial activity against Enterococcus faecalis ATCC 29212 assessed clear zone in inhibition per disk by CLSI disk diffusion susceptibility assay; type: functional
Micrococcus luteus [7] = test: Antimicrobial activity against Micrococcus luteus Presque Isle 456 assessed clear zone in inhibition per disk by CLSI disk diffusion susceptibility assay; type: functional
[8] = system: Stenotrophomonas maltophilia; test: Antimicrobial activity against Stenotrophomonas maltophilia ATCC 13637 assessed clear zone in inhibition per disk by CLSI disk diffusion susceptibility assay; type: functional
Escherichia coli [9] = test: Antimicrobial activity against Escherichia coli ATCC 25922 assessed clear zone in inhibition per disk by CLSI disk diffusion susceptibility assay; type: functional
Enterobacter cloacae [10] = test: Antimicrobial activity against Enterobacter cloacae ATCC 13047 assessed clear zone in inhibition per disk by CLSI disk diffusion susceptibility assay; type: functional
Neisseria gonorrhoeae [11] = test: Antimicrobial activity against Neisseria gonorrhoeae ATCC 49226 assessed clear zone of inhibition measured per disk by CLSI disk diffusion susceptibility assay; type: functional
Candida albicans [12] = test: Antifungal activity against Candida albicans ATCC 90028 after 48 hrs by broth microdilution susceptibility assay; type: functional; conditions: ATCC 90028, 48 h
Cryptococcus neoformans [13] = test: Antifungal activity against Cryptococcus neoformans ATCC 90112 after 72 hrs by broth microdilution susceptibility assay; type: functional; conditions: ATCC 90112, 72 h
Staphylococcus aureus [14] = test: Antimicrobial activity against Staphylococcus aureus ATCC 29213 by broth microdilution susceptibility assay; type: functional
Streptococcus pneumoniae [15] = test: Antimicrobial activity against Streptococcus pneumoniae ATCC 6303 by broth microdilution susceptibility assay; type: functional
Enterococcus faecalis [16] = test: Antimicrobial activity against Enterococcus faecalis ATCC 29212 by broth microdilution susceptibility assay; type: functional
Micrococcus luteus [17] = test: Antimicrobial activity against Micrococcus luteus Presque Isle 456 by broth microdilution susceptibility assay; type: functional
[18] = system: Stenotrophomonas maltophilia; test: Antimicrobial activity against Stenotrophomonas maltophilia ATCC 13637 by broth microdilution susceptibility assay; type: functional
Escherichia coli [19] = test: Antimicrobial activity against Escherichia coli ATCC 25922 by broth microdilution susceptibility assay; type: functional
Enterobacter cloacae [20] = test: Antimicrobial activity against Enterobacter cloacae ATCC 13047 by broth microdilution susceptibility assay; type: functional
Neisseria gonorrhoeae [21] = test: Antimicrobial activity against Neisseria gonorrhoeae ATCC 49226 by broth microdilution susceptibility assay; type: functional
Candida albicans [22] = test: Antifungal activity against Candida albicans ATCC 90028 after 24 hrs by broth microdilution susceptibility assay; type: functional; conditions: ATCC 90028, 24 h
Staphylococcus aureus [23] = test: Antimicrobial activity against Staphylococcus aureus ATCC 29213 after 24 hrs by broth microdilution susceptibility assay; type: functional; conditions: ATCC 29213, 24 h
Streptococcus pneumoniae [24] = test: Antimicrobial activity against Streptococcus pneumoniae ATCC 6303 after 24 hrs by broth microdilution susceptibility assay; type: functional; conditions: ATCC 6303, 24 h
Enterococcus faecalis [25] = test: Antimicrobial activity against Enterococcus faecalis ATCC 29212 after 24 hrs by broth microdilution susceptibility assay; type: functional; conditions: ATCC 29212, 24 h
[26] = system: Stenotrophomonas maltophilia; test: Antimicrobial activity against Stenotrophomonas maltophilia ATCC 13637 after 24 hrs by broth microdilution susceptibility assay; type: functional; conditions: ATCC 13637, 24 h
Escherichia coli [27] = test: Antimicrobial activity against Escherichia coli ATCC 25922 after 24 hrs by broth microdilution susceptibility assay; type: functional; conditions: ATCC 25922, 24 h
Enterobacter cloacae [28] = test: Antimicrobial activity against Enterobacter cloacae ATCC 13047 after 24 hrs by broth microdilution susceptibility assay; type: functional; conditions: ATCC 13047, 24 h
Neisseria gonorrhoeae [29] = test: Antimicrobial activity against Neisseria gonorrhoeae ATCC 49226 after 24 hrs by broth microdilution susceptibility assay; type: functional; conditions: ATCC 49226, 24 h

With `COc1ccccc1/C=C/[N+](=O)[O-]` the EC50 (P388) was 0.51 µg/mL (≈ 2.85 µM), the GI50 (BXPC-3) was 1.6 µg/mL (≈ 8.93 µM) and the GI50 (MCF7) was 0.48 µg/mL (≈ 2.68 µM). The GI50 (SF-295) was 1.7 µg/mL (≈ 9.49 µM), the GI50 (SF-268) was “inactive” and the GI50 (NCI-H460) was 1.7 µg/mL (≈ 9.49 µM). For the same compound, the GI50 (KM-20L2) was 1.5 µg/mL (≈ 8.37 µM), the GI50 (DU-145) was 1.5 µg/mL (≈ 8.37 µM) and the GI50 (SK-MEL-5) was “inactive”. For the same compound, the GI50 (OVCAR-3) was “inactive”, the GI50 (A498) was “inactive” and the IC50 [1] was 7.4 µM. The MIC (Candida albicans [2]) was 1.56 µg, the MIC (Cryptococcus neoformans [3]) was 0.78 µg and the MIC (Staphylococcus aureus [4]) was 6.25 µg. The MIC (Streptococcus pneumoniae [5]) was 25 µg, the MIC (Enterococcus faecalis [6]) was 0.78 µg and the MIC (Micrococcus luteus [7]) was >100 µg. For the same compound, the MIC [8] was 12.5 µg, the MIC (Escherichia coli [9]) was 50 µg and the MIC (Enterobacter cloacae [10]) was 25 µg. The MIC (Neisseria gonorrhoeae [11]) was 0.78 µg, the MIC (Candida albicans [12]) was 8 µg/mL (≈ 44.6 µM) and the MIC (Cryptococcus neoformans [13]) was > 64 µg/mL. It also gave an MIC (Staphylococcus aureus [14]) of 64 µg/mL (≈ 357 µM), an MIC (Streptococcus pneumoniae [15]) of 64 µg/mL (≈ 357 µM) and an MIC (Enterococcus faecalis [16]) of 64 µg/mL (≈ 357 µM). The MIC (Micrococcus luteus [17]) was > 64 µg/mL, the MIC [18] was 32 µg/mL (≈ 179 µM) and the MIC (Escherichia coli [19]) was 64 µg/mL (≈ 357 µM). The MIC (Enterobacter cloacae [20]) was 64 µg/mL (≈ 357 µM), the MIC (Neisseria gonorrhoeae [21]) was 2 µg/mL (≈ 11.2 µM) and the MFC (Candida albicans [22]) was 16 µg/mL (≈ 89.3 µM). The MBC (Staphylococcus aureus [23]) was > 64 µg/mL, the MBC (Streptococcus pneumoniae [24]) was > 64 µg/mL and the MBC (Enterococcus faecalis [25]) was > 64 µg/mL. The MBC [26] was 64 µg/mL (≈ 357 µM), the MBC (Escherichia coli [27]) was 64 µg/mL (≈ 357 µM) and the MBC (Enterobacter cloacae [28]) was > 64 µg/mL. For the same compound, the MBC (Neisseria gonorrhoeae [29]) was 2 µg/mL (≈ 11.2 µM).
